According to patent US8927484B2, “Antiviral compounds” (Gilead Sciences, Inc., priority 2009, dated 2015):

How the values were obtained:
[1] = tested on: Replicon cells harboring H77 (genotype 1a) or Con1 (genotype 1b) HCV RNA and Renilla luciferase reporter; experiment: High Throughput Replicon Assay (HTBS); assay type: cell-based
Experimental: High Throughput Replicon Assay (HTBS)
Replicon cells harboring H77 (genotype 1a) or Con1 (genotype 1b) HCV RNA and Renilla luciferase reporter were seeded in 384-well black plates at a density of 1.6×10^3 cells per well in 90 μl of DMEM culture medium, excluding G-418. Compounds were serially diluted in 100% DMSO and added to cells at a 1:225 dilution, achieving a final concentration of 0.44% DMSO in a total volume of 90 μL with a Biotek uFlow Workstation. Cell plates were incubated at 37° C. with 5% CO2 for 3 days, after which culture media were removed and cells were assayed for luciferase activity as a marker for replication level. Luciferase expression was measured using Dual-Glo luciferase assay reagents (Promega, Madison, Wis.). Briefly, 20 μL of Dual-Glo luciferase buffer was added to lyse the cells for 10 min and subsequently 20 μL of a diluted Dual-Glo Stop & Glo substrate (1:100) was added to each well. Luminescence signal was measured on a Perkin Elmer Envision Plate Reader after incubation for 10 minute. Luciferase levels were converted into percentages relative to the untreated controls (defined as 100%) and data were fit to the logistic dose response equation y=a/(1+(x/b)^c) using XLFit4 software (IDBS, Emeryville, Calif.). EC50 values were calculated from the resulting equations.

HCV NS3 protease = target: T1, HCV NS3 protease (Hepatitis C virus genotype 1a, UniProt P27958); experiment: HCV NS3 Protease IC50 Determination (FRET); assay type: biochemical; settings: result in words
T1 construct: 2-10 nM of purified NS3 protease domains were pre-incubated
T1 sequence (P27958 1027-1208): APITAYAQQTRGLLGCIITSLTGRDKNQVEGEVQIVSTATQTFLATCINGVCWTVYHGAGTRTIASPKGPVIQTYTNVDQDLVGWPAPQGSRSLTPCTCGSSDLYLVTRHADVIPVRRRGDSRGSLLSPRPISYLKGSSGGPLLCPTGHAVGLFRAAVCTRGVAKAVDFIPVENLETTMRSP

CC[C@@H]1C[C@]1(NC(=O)[C@@H]1C[C@@H](OC(=O)N2Cc3cccc(F)c3C2)[C@H]2CCCC(=O)N21)C(=O)NS(=O)(=O)C1CC1 [Example 90]
activity in the cellular assay ([1]; result in words): fails to demonstrate optimal activity | activity in the enzymatic assay (HCV NS3 protease): fails to demonstrate optimal activity

COc1ccc2c(O[C@@H]3C[C@H]4C(=O)N[C@]5(C(=O)NS(=O)(=O)C6CC6)C[C@H]5/C=C\CCCCC[C@@H]5C(=O)N4[C@@H]3CN5C(=O)OC(C)(C)C)cc(-c3cccc(C(C)C)n3)nc2c1Cl [Example 94]
inhibition at 1 µM ([1]; 72 h, read-out: INH @1 μM (Mean)): > 99%
